Holding throughout (assay type): cell-based
The test system of test [1] is pediatric high-grade glioma HSJD-GBM-001. As to the kind of experiment: cells. The conditions noted are these: MTS, 72 h incubation. An excerpt: (§1) Cancer cell lines were obtained from the repository maintained at Hospital Sant Joan de Deu (Barcelona, Spain). Cancer cell lines used in these experiment included cancer types of adult glioma (U373 and U87 cell lines), pediatric gliomas including diffuse intrinsic pontine glioma (HSJD-DIPG-007, HSJD-DIPG-011), and pediatric high-grade glioma (HSJD-GBM-001), retinoblastoma (HSJD-RBT-5, HSJD-RBT-7 and HSJD-RBT-14), Ewing sarcoma (A673), rhabdomyosarcoma (Rd and RH4) and neuroblastoma (LAN-1 and SK-N-JD cell lines and HSJD-NB-004, HSJD-NB-005 and HSJD-NB-016 patient-derived cell models). Briefly, between 3000 and 30,000 cancer cells were cultured in 96 well plates and 24 h later the cells were exposed to compound SN38-linker A-MiniAp4 (Ia) (concentration range 1-0.00000001 μM), SN38 (concentration range 1-0.00000001 μM), or irinotecan (concentration range 100-0,000001 μM). To add the drugs to the cells in culture, SN38-linker A-MiniAp4 (Ia) and irinotecan were prepared in culture medium from stock solutions at concentration 1 mg/mL in water. SN38 was prepared in culture medium from a stock solution at concentration 1 mg/mL in DMSO. The tetrazolium compound [3-(4,5-dimethylthiazol-2-yl)-5-(3-carboxymethoxyphenyl)-2-(4-sulfophenyl)-2H-tetrazolium] (MTS assay; Promega, Fitchburg, WI) was used to determine cell viability after 72 h incubation with the drugs. The concentrations of drug required to cause a reduction of 50% in cell proliferation (IC50 and 95% confidence intervals) were calculated with Graphpad Prism 8 software (La Jolla, CA). Activity curves were built for adult glioma cell lines U87 (FIG. 1) and U373 (FIG. 2), pediatric gliomas including DIPG models HSJD-DIPG-007 (FIG. 3) and HSJD-DIPG-011 (FIG. 4), and pediatric high-grade glioma model HSJD-GBM-001 (FIG. 5), retinoblastoma models HSJD-RBT-5 (FIG. 6), HSJD-RBT-7 (FIG. 7) and HSJD-RBT-14 (FIG. 8), Ewing sarcoma cell line A673 (FIG. 9), rhabdomyosarcoma cell lines Rd (FIG. 10) and RH4 (FIG. 11), neuroblastoma cell lines LAN-1 (FIG. 12) and SK-N-JD (FIG. 13) and neuroblastoma patient-derived cell models HSJD-NB-004 (FIG. 14), HSJD-NB-005 (FIG. 15) and HSJD-NB-016 (FIG. 16). The established IC50 values are in Table 3.
The present inventors compared the activity of the new compound SN38 conjugated with MiniAp4 (SN38-linkerA-MiniAp4, example 7 also named G2B-001) and with SN38-linker B-THRre (comparative example 2). Original compound SN38 was used as reference. Cancer cell lines used in these experiments were pediatric gliomas including diffuse intrinsic pontine glioma HSJD-DIPG-007, and pediatric high-grade glioma HSJD-GBM-001. Briefly, 3000 cancer cells were cultured in 96 well plates and 24 h later the cells were exposed to compound compound (Ia) (concentration range 1-0.00000001 μM), SN38-Linker B-THRre (concentration range 1-0.00000001 μM), and SN38 (concentration range 1-0.00000001 μM). To add the drugs to the cells in culture, SN38-Linker A-MiniAp4 (Ia) and SN38-Linker B-THRre were prepared in culture medium from stock solutions at concentration 1 mg/mL in water. SN38 was prepared in culture medium from a stock solution at concentration 1 mg/mL in DMSO. The MTS assay was used to determine cell viability after 72 h incubation with the drugs. The concentrations of drug required to cause a reduction of 50% in cell proliferation (IC50 and 95% confidence intervals) were calculated with Graphpad Prism 8 software (La Jolla, CA). Activity curves were built for cells HSJD-DIPG-007 (FIG. 20) and HSJD-GBM-001 (FIG. 21). The established IC50 values are in Table 4.
Cancer cell lines used in these experiments were pediatric gliomas including diffuse intrinsic pontine glioma HSJD-DIPG-007, and pediatric high-grade glioma HSJD-GBM-001. Briefly, 3000 cancer cells were cultured in 96 well plates and 24 h later the cells were exposed to compounds (Ia), comparative example 1 and comparative example 2 (concentration range 1-0.001 μM for each of them). […]

Test [2] deals with rhabdomyosarcoma cell line Rd. Nature of the test: MTS cell viability assay, rhabdomyosarcoma cell line Rd. The conditions noted are these: 72 h incubation, Example 9, Table 3, read-out: IC50 values against cancer cell lines.
Excerpt: as §1, with “Briefly, between 3000 and 30,000 cancer cells were cultured in 96 well plates and 24 h later the cells were exposed to compound SN38-linker A-MiniAp4 (Ia) (concentration range 1-0.00000001 μM), SN38 (concentration range 1-0.00000001 μM), or irinotecan (concentration range 100-0,000001 μM).” left out, “The tetrazolium compound [3-(4,5-dimethylthiazol-2-yl)-5-(3-carboxymethoxyphenyl)-2-(4-sulfophenyl)-2H-tetrazolium] (MTS assay; Promega, Fitchburg, WI) was used to determine cell viability after 72 h incubation with the drugs. The concentrations of drug required to cause a reduction of 50% in cell proliferation (IC50 and 95% confidence intervals) were calculated with Graphpad Prism 8 software (La Jolla, CA).” left out

The subject of test [3] is rhabdomyosarcoma cell line RH4. As to the kind of experiment: MTS cell viability assay, rhabdomyosarcoma cell line RH4. The following applies: 72 h incubation, Example 9, Table 3, read-out: IC50 values against cancer cell lines.
Excerpt: as §1, with “Briefly, between 3000 and 30,000 cancer cells were cultured in 96 well plates and 24 h later the cells were exposed to compound SN38-linker A-MiniAp4 (Ia) (concentration range 1-0.00000001 μM), SN38 (concentration range 1-0.00000001 μM), or irinotecan (concentration range 100-0,000001 μM).” left out, “The tetrazolium compound [3-(4,5-dimethylthiazol-2-yl)-5-(3-carboxymethoxyphenyl)-2-(4-sulfophenyl)-2H-tetrazolium] (MTS assay; Promega, Fitchburg, WI) was used to determine cell viability after 72 h incubation with the drugs. The concentrations of drug required to cause a reduction of 50% in cell proliferation (IC50 and 95% confidence intervals) were calculated with Graphpad Prism 8 software (La Jolla, CA).” left out

Test [4] concerns adult glioma cell line U87. Nature of the test: MTS cell viability assay, adult glioma cell line U87. The following applies: 72 h incubation, Example 9, Table 3, read-out: IC50 values against cancer cell lines.
Excerpt: as §1, with “Briefly, between 3000 and 30,000 cancer cells were cultured in 96 well plates and 24 h later the cells were exposed to compound SN38-linker A-MiniAp4 (Ia) (concentration range 1-0.00000001 μM), SN38 (concentration range 1-0.00000001 μM), or irinotecan (concentration range 100-0,000001 μM).” left out, “The tetrazolium compound [3-(4,5-dimethylthiazol-2-yl)-5-(3-carboxymethoxyphenyl)-2-(4-sulfophenyl)-2H-tetrazolium] (MTS assay; Promega, Fitchburg, WI) was used to determine cell viability after 72 h incubation with the drugs. The concentrations of drug required to cause a reduction of 50% in cell proliferation (IC50 and 95% confidence intervals) were calculated with Graphpad Prism 8 software (La Jolla, CA).” left out

Where [5] appears, read: Example 9, Table 3, read-out: IC50 values against cancer cell lines.
Where [6] appears, read: Example 11, Table 4, read-out: IC50 values of compounds.

The source of these data is US20240285784A1, “PEPTIDIC CONJUGATES OF SN38 USEFUL IN THE TREATMENT OF CANCER” (FUNDACIÓ INSTITUT DE RECERCA BIOMÈDICA (IRB BARCELONA), priority 2020, published 2024).

Where two headings read alike, the source gives them in different places. *1 amine or outer side, *2 acyl side, *3 side chain or, on linkers, in order; H or OH if unused. Where a SMILES comes first, the peptide text is derived from it. Bridges are numbered along the chain shown (N, C = ends). [ ]: non-standard residue; d: D form. The star is where a group is joined. X1 = CCc1c2c(nc3ccc(O)cc13)-c1cc3c(c(=O)n1C2)COC(=O)[C@@]3(CC)OC(=O)CCCCn1cc(CCCC(=O)NCCCOCCOCCOCCCN*)nn1; Suc = O=C(CCC(=O)[*:2])[*:1]; Dap = NC[C@H](N)C(=O)O

For the compound `CCc1c2c(nc3ccc(O)cc13)-c1cc3c(c(=O)n1C2)COC(=O)[C@]3(O)CC` [SN38, 7-ethyl-10-hydroxy-camptothecin], the IC50 in test [1] (setting [5]) stood at 0.00261 µM; in test [1] (setting [6]), 0.00631 µM; in test [2] (Rhabdomyosarcoma cell), 1.57 nM; in test [3] (Rhabdomyosarcoma cell), 14.8 nM; in test [4] (Glioma cell) it was 4.04 nM.

Turning to `CCc1c2c(nc3ccc(OC(=O)N4CCC(N5CCCCC5)CC4)cc13)-c1cc3c(c(=O)n1C2)COC(=O)[C@]3(O)CC` [Irinotecan], the IC50 in test [1] (setting [5]) came to 9.57 µM; in test [2] (Rhabdomyosarcoma cell), 5960 nM; in test [3] (Rhabdomyosarcoma cell) it was 10800 nM; in test [4] (Glioma cell), 9750 nM.

For the compound `CCc1c2c(nc3ccc(O)cc13)-c1cc3c(c(=O)n1C2)COC(=O)[C@@]3(CC)OC(=O)CCCCn1cc(CCCC(=O)NCCCOCCOCCOCCCNC(=O)CCC(=O)N[C@H]2CNC(=O)C[C@@H](C(N)=O)NC(=O)[C@H](CC(C)C)NC(=O)[C@H](C)NC(=O)[C@H]([C@@H](C)O)NC(=O)[C@H](CCC(=O)O)NC(=O)[C@@H]3CCCN3C(=O)[C@H](C)NC(=O)[C@H](CCCCN)NC2=O)nn1` [SN38-linker A-MiniAp4 (Ia)] ({X1-Suc}-[Dap]KAPETALD-NH2; lactam 1-9), the IC50 in test [1] (setting [5]) was found to be 0.0703 µM; in test [1] (setting [6]), 0.00639 µM; in test [1] (Example 12, Table 5, read-out: IC50 values (μM) against cancer cell lines), 0.0216 µM; in test [2], 6.94 nM; in test [3], 81.5 nM; in test [4], 744 nM.
